Laboratory results from US7449478B2, “Indole compounds” (National Health Research Institutes, priority 2003, dated 2008).

Test system: PPAR
Test: PPAR agonist activity / binding to PPAR, tetraethylthiuram disulfide alone or combined
Conditions: tetraethylthiuram disulfide alone

## CCN(CC)C(=S)SSC(=S)N(CC)CC [tetraethylthiuram disulfide]
  PPAR agonist activity: poor PPAR agonist
